Experimental data: US20230053688A1, “METHODS TO ALTER LATENCY IN EBV+ MALIGNANCIES” (Cornell University, priority 2020, published 2023)
Where a name gives a salt, the structure may show the parent alone. Read-outs that look alike come from different tables or passages of the source.

Test system: LMP1 expression in Kem I cells
Experiment: microbe, parasite or virus in culture
Assay type: cell-based, EBV
Conditions: for fold induction at 2.5 µM: human gammaherpesvirus 4, 48 h
[1] = Kem I cells, 2.5 uM, 48 hours, average of replicates 1 and 2
[2] = Kem I cells, 2.5 uM, 48 hours, fold change in LMP1 transcript vs vehicle
[3] = read-out: Average LMP1 Fold Increase, Kem I cells, 2.5 uM, 48 hours, average of replicates 1 and 2
[4] = read-out: Replicate 1-LMP1 Fold Increase, Kem I cells, 2.5 uM, 48 hours, fold change in LMP1 transcript vs vehicle
[5] = read-out: Replicate 2-LMP1 Fold Increase, Kem I cells, 2.5 uM, 48 hours, fold change in LMP1 transcript vs vehicle

| SMILES | Average LMP1 Fold Increase [1] | Replicate 1-LMP1 Fold Increase [2] | Replicate 2-LMP1 Fold Increase [2] | fold induction at 2.5 µM [3] | fold induction at 2.5 µM [4] | fold induction at 2.5 µM [5] | further results |
| --- | --- | --- | --- | --- | --- | --- | --- |
| CC(=O)O[C@H]1C[C@@H]2CC[C@@H]3[C@H](CC[C@@]4(C)[C@H]3C[C@H]([N+]3(C)CCCCC3)[C@@H]4OC(C)=O)[C@@]2(C)C[C@@H]1[N+]1(C)CCCCC1.[Br-].[Br-] [Pancuronium dibromide] | 0.28 | 0.25 | 0.31 | – | – | – | – |
| Cc1[nH]c2ccccc2c1CCNCc1ccc(/C=C/C(=O)NO)cc1 [Panobinostat (LBH589)] | 383.26 | 451.65 | 314.88 | – | – | – | – |
| Oc1cc(O)cc(/C=C/c2ccc(O)c(O)c2)c1 [Piceatannol] | – | – | – | 0.75 | 0.83 | 0.66 | – |
| COc1ccc(-c2nc3ccc(C4=NNC(=O)CC4C)cc3[nH]2)cc1 (stereo not drawn) [Pimobendan] | – | – | – | 0.87 | 1.11 | 0.64 | – |
| O=C(NNc1ccccc1)c1ccncc1 [PluriSln #1 (NSC 14613)] | 1.32 | 1.70 | 0.94 | – | – | – | – |
| Nc1cccc2c1C(=O)N(C1CCC(=O)NC1=O)C2=O (stereo not drawn) [Pomalidomide] | – | – | – | 5.8 | 3.72 | 7.87 | – |
| C#CCC(Cc1cnc2nc(N)nc(N)c2n1)c1ccc(C(=O)N[C@@H](CCC(=O)O)C(=O)O)cc1 (stereo partly drawn) [Pralatrexate] | – | – | – | 3.49 | 3.95 | 3.02 | – |
| CCCN[C@H]1CCc2nc(N)sc2C1 [Pramipexole] | – | – | – | 0.93 | 0.6 | 1.27 | – |
| CCc1nc(N)nc(N)c1-c1ccc(Cl)cc1 [Pyrimethamine] | – | – | – | 0.8 | 0.7 | 0.9 | – |
| CC(C)(C)c1cc(NC(=O)Nc2ccc(-c3cn4c(n3)sc3cc(OCCN5CCOCC5)ccc34)cc2)no1 [Quizartinib (AC220)] | 0.93 | 0.71 | 1.15 | – | – | – | – |
| O=C(NCc1cccc(O)c1)Nc1nc(-c2ccncc2)cs1 [RKI-1447] | 0.54 | 0.75 | 0.33 | – | – | – | – |
| Cc1nnc(C(=O)NC(C)(C)c2nc(C(=O)NCc3ccc(F)cc3)c(O)c(=O)n2C)o1 [Raltegravir (MK-0518)] | 1.31 | 0.59 | 2.02 | – | – | – | – |
| CCC(=O)NCC[C@@H]1CCc2ccc3c(c21)CCO3 [Ramelteon] | – | – | – | 0.33 | 0.45 | 0.22 | – |
| CNC(=C[N+](=O)[O-])NCCSCc1ccc(CN(C)C)o1 [Ranitidine] | – | – | – | 1.04 | 0.9 | 1.18 | – |
| C#CCN[C@@H]1CCc2ccccc21 [Rasagiline Mesylate] | – | – | – | 0.69 | 0.86 | 0.51 | – |
| O=C(NC(Cc1cc(=O)[nH]c2ccccc12)C(=O)O)c1ccc(Cl)cc1 (stereo not drawn) [Rebamipide] | – | – | – | 0.85 | 0.48 | 1.23 | – |
| Cc1cccc(-c2[nH]ncc2-c2ccc3ncccc3n2)n1 [RepSox] | – | – | – | – | – | – | Average LMP1 Fold Increase: 0.64; Replicate 1-LMP1 Fold Increase: 0.96; Replicate 2-LMP1 Fold Increase: 0.33 |
| CO[C@H]1C[C@@H]2CC[C@@H](C)[C@@](O)(O2)C(=O)C(=O)N2CCCC[C@H]2C(=O)O[C@H]([C@H](C)C[C@@H]2CC[C@@H](OP(C)(C)=O)[C@H](OC)C2)CC(=O)[C@H](C)/C=C(\C)[C@@H](O)[C@@H](OC)C(=O)[C@H](C)C[C@H](C)/C=C/C=C/C=C/1C [Ridaforolimus (Deforolimus, MK-8669)] | 3.37 | 6.08 | 0.67 | – | – | – | – |
| COc1cc(OC)c(/C=C/S(=O)(=O)Cc2ccc(OC)c(NCC(=O)O)c2)c(OC)c1 [Rigosertib (ON-01910)] | 0.57 | 0.69 | 0.46 | – | – | – | – |
| Cc1c(C(=O)NN2CCCCC2)nn(-c2ccc(Cl)cc2Cl)c1-c1ccc(Cl)cc1 [Rimonabant] | – | – | – | 0.39 | 0.24 | 0.54 | – |
| O=C(NC[C@H]1CN(c2ccc(N3CCOCC3=O)cc2)C(=O)O1)c1ccc(Cl)s1 [Rivaroxaban] | – | – | – | 0.14 | 0.08 | 0.2 | – |
| CN(C)CCc1c[nH]c2ccc(Cn3cncn3)cc12 [Rizatriptan Benzoate] | – | – | – | 0.15 | 0.1 | 0.2 | – |
| COc1ccc(C2CNC(=O)C2)cc1OC1CCCC1 (stereo not drawn) [Rolipram] | – | – | – | 0.94 | 1.13 | 0.75 | – |
| COc1cc2c(cc1OC)[C@@H]1Cc3ccc(OC)c(OC)c3CN1CC2 [Rotundine] | – | – | – | 0.28 | 0.3 | 0.27 | – |

| SMILES | Average LMP1 Fold Increase [1] | Replicate 1-LMP1 Fold Increase [2] | Replicate 2-LMP1 Fold Increase [2] | fold induction at 2.5 µM [3] | fold induction at 2.5 µM [4] | fold induction at 2.5 µM [5] | further results |
| --- | --- | --- | --- | --- | --- | --- | --- |
| CC(=O)OCC(=O)NCCCOc1cccc(CN2CCCCC2)c1 [Roxatidine Acetate HCl] | – | – | – | 0.2 | 0.15 | 0.24 | – |
| N#CC[C@H](C1CCCC1)n1cc(-c2ncnc3[nH]ccc23)cn1 [Ruxolitinib (INCB018424)] | 0.41 | 0.48 | 0.34 | – | – | – | – |
| Cc1nn(-c2ccccc2)c(C)c1/C=N/N1CCN(Cc2ccccc2)CC1 [SANT-1] | 0.64 | 0.31 | 0.97 | – | – | – | – |
| CCn1c(N)c(C(=O)NC)c(=O)c2ccc(C#C[C@@](C)(O)COC)nc21 [SAR131675] | 0.40 | 0.30 | 0.49 | – | – | – | – |
| C[S+]([O-])c1ccc(-c2nc(-c3ccc(F)cc3)c(-c3ccncc3)[nH]2)cc1 (stereo not drawn) [SB203580] | 0.57 | 0.54 | 0.59 | – | – | – | – |
| Cc1cc(NC(=O)Nc2ccc(N(C)C)cc2)c2cc(F)cc(F)c2n1 [SB408124] | 0.67 | 0.81 | 0.53 | – | – | – | – |
| O=C1NC(=O)C(c2ccccc2[N+](=O)[O-])=C1Nc1ccc(O)c(Cl)c1 [SB415286] | 0.71 | 0.59 | 0.84 | – | – | – | – |
| NC(=O)c1ccc(-c2nc(-c3ccccn3)c(-c3ccc4c(c3)OCO4)[nH]2)cc1 [SB431542] | 0.71 | 0.82 | 0.61 | – | – | – | – |
| O=C(Nc1ccccc1Br)N[C@@H]1CCN(c2ccc(C(F)(F)F)cn2)C1 [SB705498] | 0.43 | 0.38 | 0.48 | – | – | – | – |
| O=S(=O)(c1ccccc1)c1cnc2c(N3CCNCC3)cccc2c1 [SB742457] | 0.82 | 1.09 | 0.55 | – | – | – | – |
| Cc1ccc(C(=O)N(CCCN)[C@@H](c2oc3cc(Cl)ccc3c(=O)c2Cc2ccccc2)C(C)C)cc1 [SB743921] | 1.76 | 1.10 | 2.41 | – | – | – | – |
| O=C(NNc1nc2cc(F)ccc2n2cccc12)c1cnccn1 [SC144] | 1.51 | 1.00 | 2.02 | – | – | – | – |
| CC(C)N(CCCNC(=O)Nc1ccc(C(C)(C)C)cc1)C[C@H]1O[C@@H](n2cc(Br)c3c(N)ncnc32)[C@H](O)[C@@H]1O [SGC 0946] | – | – | – | 0.29 | 0.26 | 0.31 | – |
| Cc1cc(Nc2ccc(NC(=O)c3ccc(Nc4ccnc5ccccc45)cc3)cc2)nc(N)n1 [SGI-1027] | 53.53 | 13.12 | 93.95 | – | – | – | – |
| CN1CCC(CNc2ccc3ncc(-c4cccc(OC(F)(F)F)c4)n3n2)CC1 [SGI-1776 free base] | 1.26 | 1.94 | 0.57 | – | – | – | – |
| Oc1ccc(Nc2nc(-c3ccc(Cl)cc3)cs2)cc1 [SKI II] | 1.00 | 0.96 | 1.03 | – | – | – | – |
| O=C1NC(=O)/C(=C/c2cccc(C(F)(F)F)c2)S1 [SMI-4a] | 0.41 | 0.29 | 0.53 | – | – | – | – |
| CC(C)(C)c1cnc(CSc2cnc(NC(=O)C3CCNCC3)s2)o1 [SNS-032 (BMS-387032)] | 23.97 | 23.56 | 24.39 | – | – | – | – |
| Oc1c2ccccc2c2c3c(cccc13)N=N2 [SP600125] | – | – | – | 0.6 | 0.67 | 0.53 | – |
| O=C(Nc1cc(C(F)(F)F)ccc1N1CCCCC1)c1ccncc1 [SRPIN340] | 0.84 | 1.24 | 0.44 | – | – | – | – |
| O=C(Nc1ccccc1-c1cn2c(CN3CCNCC3)csc2n1)c1cnc2ccccc2n1 [SRT1720] | 0.64 | 0.58 | 0.70 | – | – | – | – |
| COc1c(C)c(C(=O)c2ccc(N)c(C(=O)[O-])c2)n2ccccc12.[Na+] [SSR128129E] | 0.44 | 0.36 | 0.52 | – | – | – | – |
| Cc1ccc(S(=O)(=O)Cc2nc(-c3ccc(C(=O)NCc4cccnc4)cc3)oc2C)cc1 [STF-118804] | 0.10 | 0.08 | 0.11 | – | – | – | – |
